Data set [1] concerns DU145, A549, VA-13, HEK293, EMT6. Kind of data set: Initial cytotoxicity testing (MTT test), all cell lines together. The data set is classed as cell-based. Here is the method:
(§1) Colon cancer (HCT116, HT29), breast cancer (MCF7, SKBR3), melanoma (SK-MEL28), lung cancer (A549), prostate cancer (DU145), human normal cells (VA-13 and HEK293), and murine mammary cell lines (EMT6) were purchased from ATCC (Manassas, VA, USA). Cells were routinely grown in RPMI 1640 culture medium, supplemented with 10% fetal bovine serum, glutamine, and 100 U/mL penicillin. HCT116, HT29, MCF7, SKBR3, SK-MEL28, A549, DU145, VA-13, HEK293, and EMT6 cells were grown in flasks in RPMI 1640 fresh culture medium with supplements at 37 °C and 5% CO2. Cells were grown as monolayer cultures, and the cells in the exponential growth phase were trypsinized and suspended in the supplemented RPMI 1640 medium.
(§2) To evaluate the cytotoxicity of the compounds, we placed cells in (20–30) × 10^3 cells/mL concentrations in 96-well culture plates for 24 h. Cells were counted after treatment with Trypan blue solution (0.4%). They were then exposed to two different concentrations of compounds 16–30 (50–100 µM) dilutions in pre-incubated cells at 37 °C for 72 h. In control wells with untreated cells, only (DMSO + PBS) was added. Cell viability was measured by the standard MTT test. The stock solutions of each compound were prepared in DMSO following by preparation of serial dilutions in PBS.
(§3) The absorbance was measured at 540 nm using a Multiskan™ FC microplate photometer and the Skanlt software 6.1 RE for microplate reader, both from Thermo Scientific (Waltham, MA, USA). Experiments were carried out in triplicate; to perform the statistical analysis, more concentrations should be evaluated.

Another data set can be described thus: in vitro. Conditions: dog.
Data set [2] relates to a variety of cancer cell lines. Kind of data set: IC50 determination (MTT test), variety of cancer cell lines. The data set is classed as cell-based. The following applies: Homo sapiens, 72 h, read-out: IC50 range on a variety of cancer cell lines. The procedure: as §1
To evaluate the cytotoxicity of the SDE-series in vitro, we placed cells in (15–30) × 10^3 cells/mL concentrations in 96-well culture plates for 24 h. Cells were counted after treatment with Trypan blue solution (0.4%). After 24 h, the cells were exposed to six tested concentrations of SDE-series (50–1.5 µM) dilutions to pre-incubated cells at 37 °C for 72 h. In control wells with untreated cells, only (DMSO + PBS) was added. Cell viability was measured by the standard MTT test. The absorbance was measured at 540 nm using a Multiskan™ FC microplate photometer and the Skanlt software 6.1 RE for microplate reader, both from Thermo Scientific (Waltham, MA, USA). […]
Background: Formazan colour is commonly taken as a measure of viable cells.

The test system of a further data set is MCF7. Briefly: IC50 determination (MTT test), MCF7. The data set is classed as cell-based. The following applies: Homo sapiens, breast cancer, 72 h. Here is the method: as §1
(§4) To evaluate the cytotoxicity of the SDE-series in vitro, we placed cells in (15–30) × 10^3 cells/mL concentrations in 96-well culture plates for 24 h. Cells were counted after treatment with Trypan blue solution (0.4%). After 24 h, the cells were exposed to six tested concentrations of SDE-series (50–1.5 µM) dilutions to pre-incubated cells at 37 °C for 72 h. In control wells with untreated cells, only (DMSO + PBS) was added. Cell viability was measured by the standard MTT test. The absorbance was measured at 540 nm using a Multiskan™ FC microplate photometer and the Skanlt software 6.1 RE for microplate reader, both from Thermo Scientific (Waltham, MA, USA). In vitro experiments were carried out in triplicate. GraphPad prism version 9.0 was used to determine the IC50. The IC50 data are presented as mean (±) standard deviation (SD).

In the next data set the test system is HEK-293. Briefly: IC50 determination (MTT test), HEK-293. The following applies: Homo sapiens, HEK293, normal cells, 72 h. The data set is classed as cell-based. The procedure: as §1, §4
For data set [3], the system named is DU145. Briefly: Initial cytotoxicity testing (MTT test), DU145. Conditions: human cancer cell line, MTT, 72 h, two concentrations 50–100 µM. The data set is classed as cell-based, human. Here is the method: as §1, §2, §3
The next data set concerns VA-13. Kind of data set: Initial cytotoxicity testing (MTT test), VA-13. The data set is classed as cell-based, human. Conditions: human healthy cells, MTT, 72 h, two concentrations 50–100 µM. The procedure: as §1, §2, §3
Data set [4] relates to A549. Kind of data set: IC50 determination (MTT test), A549. The following applies: Homo sapiens, lung cancer, 72 h. The data set is classed as cell-based. Here is the method:
as §1, §4

For another data set, the system named is EMT6. Kind of data set: Initial cytotoxicity testing (MTT test), EMT6. The following applies: murine mammary cell line, MTT, 72 h, two concentrations 50–100 µM. The data set is classed as cell-based, murine. Here is the method:
as §1, §2, §3

Another data set deals with HCT116. Kind of data set: IC50 determination (MTT test), HCT116. Conditions: Homo sapiens, HCT-116, colon cancer, 72 h. The data set is classed as cell-based, human. Here is the method:
as §1, §4

For the next data set, the system named is SKBR3. Kind of data set: IC50 determination (MTT test), SKBR3. The data set is classed as cell-based. Conditions: Homo sapiens, SK-BR-3, breast cancer, 72 h. The procedure: as §1, §4
In data set [5] the test system is DU145. Briefly: IC50 determination (MTT test), DU145. The following applies: Homo sapiens, DU-145, prostate cancer, 72 h. The data set is classed as cell-based. The procedure: as §1, §4
In another data set the test system is HT-29. Briefly: IC50 determination (MTT test), HT-29. The data set is classed as cell-based. The following applies: Homo sapiens, colon cancer, 72 h. The procedure: as §1, §4
The subject of the next data set is HEK293. Kind of data set: Initial cytotoxicity testing (MTT test), HEK293. The data set is classed as cell-based, human. Conditions: human healthy cells, MTT, 72 h, two concentrations 50–100 µM. The procedure: as §1, §2, §3
Data set [6] has as its system influenza virus A/Puerto Rico/8/34 (H1N1). Kind of data set: Antiviral (cytoprotective) activity in MDCK cells, MTT. The data set is classed as cell-based. The following applies: H1N1; infected MDCK cells, m.o.i. 0.01, 48 h, 50% cell protection; read-out: IC50.
In data set [7] the test system is A549. Briefly: Initial cytotoxicity testing (MTT test), A549. The data set is classed as cell-based, human. Conditions: human cancer cell line, MTT, 72 h, two concentrations 50–100 µM. Here is the method:
as §1, §2, §3

A further data set relates to SK-MEL-28. Kind of data set: IC50 determination (MTT test), SK-MEL-28. The data set is classed as cell-based, human. The following applies: Homo sapiens, SK-MEL-28, melanoma, 72 h. The procedure: as §1, §4

The structures appear in SMILES notation. Marks after values point to notes of the source that are not given here. A value given as a limit tells only on which side of the number the result lay.

The term IC50 denotes the concentration that gives 50% inhibition.

As to `CC1=CCCC2(CC(C)=NN2c2ccccc2)C2CC(C)(C)C2CC1` [Compound 21a, (1S,2R,9R,E)-5′,6,10,10-Tetramethyl-2′-phenyl-2′,4′-dihydrospiro[bicyclo [7.2.0]undecane-2,3′-pyrazol]-5-ene], in [1], the “toxicity to all cells” value is given as “extremely toxic, killing all cells within 48 h”. In addition, the CC50 at 48 h in the data set “in vitro” was determined as 28 ± 1.9 µM. The IC50 was 12.3 to 39.4 µM in [2]; more than 50 µM in the data set with MCF7; 14.2 ± 0.9 µM in the data set on HEK-293; 21.2 ± 0.9 µM in the data set with A549 [4]; 22.4 ± 0.8 µM in the data set on HCT116; 12.3 ± 1 µM with SKBR3. Moreover, the half-inhibitory concentration (IC50) in the data set with DU145 [5] stood at 18.8 ± 0.4 µM; in the data set with HT-29 it was 39.4 ± 2.1 µM; in data set [6] it was 6.25 ± 0.7 µM; in the data set on SK-MEL-28, 24.9 ± 1.3 µM. Besides, the “cytotoxicity DU145” value with DU145 [3] is given as “+ *”. In addition, in the data set on VA-13, the “cytotoxicity VA-13” value was “+ *”. Moreover, the “cytotoxicity EMT6” value with EMT6 is “+ *”. In addition, in the data set with HEK293, the “cytotoxicity HEK293” value is given as “+ *”. The “cytotoxicity A549” value in the data set with A549 [7] is “+ *”.
